From patent US8404225B2, “Contact sex pheromone component of the Emerald Ash Borer Agrilus planipennis Fairmaire (Coleoptera: Buprestidae)” (National Research Council of Canada, priority 2008, dated 2013)

Key:
[1] = tested on: feral EAB males (Agrilus planipennis); assay: Behavioral field bioassay with dummy females (feral male contact and mating behaviour); assay type: in vivo
Protocol: Preparation of dummy females. A total of 78 EAB females that emerged from 10-15 Jul. 2008 were reared for the field bioassay. Female EAB were reared in the quarantine facilities, as described above, until the age of 14 days, when they were frozen. Prior to the field bioassay, females were removed from the freezer and thawed for 2-3 h. For 52 of the females, each female was individually rinsed in 1 ml of hexane for about 2 min. Females were then allowed to dry for a minimum of 30 min before being rinsed again. Females were rinsed a total of three times for 2 min each time and left to dry overnight after the final rinsing. All 78 females were then individually pinned through the right elytra at its base; the heads of the pins were then snipped off such that the end of the pin was only about 1 mm above the surface of the female's body and thus would not interfere with approaches by feral male EAB. Twenty-six of the rinsed females were then treated with 1 μl of racemic 9-methyl pentacosane (ca. 5 mg/ml; one female equivalent), in solution with hexane, and allowed to dry. This divided the 78 females into three treatment groups (unwashed, washed, and washed then treated). The treatment groups were indicated by pinning a small paper insect ‘point’ underneath the female that was not visible from above. The points were colored white (unwashed), yellow (washed) or blue (washed then treated). […] Females were kept at 3-4° C. in a fridge for 2 days until used in the bioassay and were transported to the field in a cooler.
Behavioral field bioassay. The field bioassay was conducted from 7-11 Jul. 2008 at a site about 1.8 km northeast of Port Lambton, ON (42° 40.16′ N, 82° 29.56′ W). […] Dummy females were pinned to foliage on epicormic shoots of infested ash trees, growing from the base of the tree up to about 1.5 m above the ground. Females were placed and removed from foliage by grasping the pin underneath the female with tweezers and were never touched directly to avoid cross-contamination. Trees were chosen based on the presence of both epicormic shoots and feral EAB males on the foliage. Dummy females were placed in a triangle shape in groups of three (one of each treatment) about 20-30 cm apart. All females were pinned on south-facing foliage so that they would be in direct sunlight. From nine to 21 females were set up at different times on different trees, based on the amount of foliage available.
Observations of dummy females began once all females were established on the foliage, and lasted for about 1 h per observation session with breaks of 5-10 min in between observation sessions. We recorded the time of arrival of each male observed to land on a female and then the time of departure for that same male to obtain its total time spent in contact with a given female. The locations of the various treatments were not recorded, so the observations on time spent in contact by males was collected by observers who were unaware of the treatment. The treatment group (unwashed, treated, washed) was then recorded by checking for the presence of the colored insect point under the female's abdomen after the male had flown away. […]
The amount of time individual males spent in contact, and the percentage of that time spent attempting to mate, with females of the three different treatments were analyzed by one-way ANOVA after logarithmic transformation of data to meet the assumptions of normality of data and equality of variance; means were compared using the Holm-Sidak test. […]

[2] = tested on: brown Spruce Longhorn Beetle (BSLB); conditions: inventors' soon to be published research; cited from earlier work

CCCCCCCCCCCCCCCCC(C)CCCCCCCC (racemic) [9-Me-C25, 9-methyl pentacosane]
number of wild males landing on females ([1]; hexane-washed freeze-killed females treated with 1 μl racemic 9-methyl pentacosane (ca. 5 mg/ml; one female equivalent), field, about 40 h of observation): 27 | percentage of contact time spent attempting to mate ([1]; subset of feral males (n=7 observations), one figure printed for unwashed and 9-Me-C25-treated females together, washed females about 20%): 60%-70% | contact and copulatory activity after reapplication to hexane-rinsed females ([1]; synthetic 9-Me-C25 reapplied, field bioassays): restored almost all contact and copulatory activity | time males spent on treated females compared with washed females ([1]; treated (n=27 observations) vs hexane-washed females (n=43), t=3.817, P=0.00004): significantly longer | time males spent on treated females compared with unwashed females ([1]; treated (n=27 observations) vs unwashed females (n=36), t=0.138, P=0.89): slightly, but not significantly, less

CCCCCCCCCCCCCC[C@@H](C)CCCCCCCCCC (single isomer, unassigned) [11S-enantiomer]
activity as a contact sex pheromone [2]: demonstrated activity
